According to ChEMBL document CHEMBL2073877, “Functional characterization of the basolateral rat liver organic anion transporting polypeptide” (Hepatology, 1994):
Each block holds one compound with its values, some of them ahead of it.

Key:
[1] = biological target: T1, Solute carrier organic anion transporter family member 1A1 (Rattus norvegicus, UniProt P46720); assay: TP_TRANSPORTER: inhibition of Taurocholate uptake (Taurochorate: 20 uM, TDCA: 200 uM) in Xenopus laevis oocytes; assay type: functional, cell-based; conditions: oocyte
T1 sequence (P46720 whole entry): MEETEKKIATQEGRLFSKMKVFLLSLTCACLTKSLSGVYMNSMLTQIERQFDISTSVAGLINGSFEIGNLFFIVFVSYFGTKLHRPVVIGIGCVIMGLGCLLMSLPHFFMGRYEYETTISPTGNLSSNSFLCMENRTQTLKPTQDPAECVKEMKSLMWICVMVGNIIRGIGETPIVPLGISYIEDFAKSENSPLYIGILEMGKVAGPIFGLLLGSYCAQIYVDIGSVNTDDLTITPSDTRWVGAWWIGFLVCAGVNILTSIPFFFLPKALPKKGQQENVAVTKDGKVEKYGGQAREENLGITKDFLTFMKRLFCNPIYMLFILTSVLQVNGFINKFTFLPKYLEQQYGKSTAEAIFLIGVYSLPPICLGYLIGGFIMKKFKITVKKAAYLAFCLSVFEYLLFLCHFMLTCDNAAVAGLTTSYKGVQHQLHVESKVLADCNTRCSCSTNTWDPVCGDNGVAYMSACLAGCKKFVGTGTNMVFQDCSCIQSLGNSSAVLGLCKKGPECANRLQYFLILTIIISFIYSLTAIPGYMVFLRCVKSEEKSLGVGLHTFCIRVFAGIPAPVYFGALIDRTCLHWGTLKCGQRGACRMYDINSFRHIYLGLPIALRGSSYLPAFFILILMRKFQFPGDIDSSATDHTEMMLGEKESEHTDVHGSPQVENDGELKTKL

[2] = biological target: T1, Solute carrier organic anion transporter family member 1A1; assay: TP_TRANSPORTER: inhibition of BSP uptake (BSP: 2 uM, TDCA: 100 uM) in Xenopus laevis oocytes; assay type: functional, cell-based; conditions: oocyte
[3] = biological target: T1, Solute carrier organic anion transporter family member 1A1; assay: TP_TRANSPORTER: inhibition of BSP uptake (BSP: 1 uM, Bilirubin: 10 uM) in Xenopus laevis oocytes; assay type: functional, cell-based, Oocyte; conditions: probe BSP
[4] = biological target: T1, Solute carrier organic anion transporter family member 1A1; assay: TP_TRANSPORTER: inhibition of BSP uptake (BSP: 2 uM, Probenecid: 1000 uM) in Xenopus laevis oocytes; assay type: functional, cell-based, Oocyte; conditions: probe BSP
[5] = biological target: T1, Solute carrier organic anion transporter family member 1A1; assay: TP_TRANSPORTER: inhibition of BSP uptake (BSP: 2 uM, CDCA: 100 uM) in Xenopus laevis oocytes; assay type: functional, cell-based; conditions: oocyte
[6] = biological target: T1, Solute carrier organic anion transporter family member 1A1; assay: TP_TRANSPORTER: inhibition of Taurocholate uptake (Taurochorate: 20 uM, CDCA: 200 uM) in Xenopus laevis oocytes; assay type: functional, cell-based; conditions: oocyte
[7] = biological target: T1, Solute carrier organic anion transporter family member 1A1; assay: TP_TRANSPORTER: inhibition of BSP uptake (BSP: 2 uM, UDCA: 100 uM) in Xenopus laevis oocytes; assay type: functional, cell-based; conditions: oocyte
[8] = biological target: T1, Solute carrier organic anion transporter family member 1A1; assay: TP_TRANSPORTER: inhibition of Taurocholate uptake (Taurochorate: 20 uM, UDCA: 200 uM) in Xenopus laevis oocytes; assay type: functional, cell-based; conditions: oocyte
[9] = biological target: T1, Solute carrier organic anion transporter family member 1A1; assay: TP_TRANSPORTER: inhibition of BSP uptake (BSP: 2 uM, ICG: 100 uM) in Xenopus laevis oocytes; assay type: functional, cell-based, Oocyte; conditions: probe BSP, read-out: Activity
[10] = biological target: T1, Solute carrier organic anion transporter family member 1A1; assay: TP_TRANSPORTER: inhibition of Taurocholate uptake (Taurochorate: 20 uM, TCDC: 200 uM) in Xenopus laevis oocytes; assay type: functional, cell-based; conditions: oocyte
[11] = biological target: T1, Solute carrier organic anion transporter family member 1A1; assay: TP_TRANSPORTER: inhibition of BSP uptake (BSP: 2 uM, TCDC: 100 uM) in Xenopus laevis oocytes; assay type: functional, cell-based; conditions: oocyte
[12] = biological target: T1, Solute carrier organic anion transporter family member 1A1; assay: TP_TRANSPORTER: inhibition of Taurocholate uptake (Taurochorate: 20 uM, DCA: 200 uM) in Xenopus laevis oocytes; assay type: functional, cell-based; conditions: oocyte
[13] = biological target: T1, Solute carrier organic anion transporter family member 1A1; assay: TP_TRANSPORTER: inhibition of BSP uptake (BSP: 2 uM, DCA: 100 uM) in Xenopus laevis oocytes; assay type: functional, cell-based; conditions: oocyte
[14] = biological target: T1, Solute carrier organic anion transporter family member 1A1; assay: TP_TRANSPORTER: inhibition of Taurocholate uptake (Taurochorate: 20 uM, GCDCA: 200 uM) in Xenopus laevis oocytes; assay type: functional, cell-based; conditions: oocyte
[15] = biological target: T1, Solute carrier organic anion transporter family member 1A1; assay: TP_TRANSPORTER: inhibition of BSP uptake (BSP: 2 uM, GCDCA: 100 uM) in Xenopus laevis oocytes; assay type: functional, cell-based; conditions: oocyte
[16] = biological target: T1, Solute carrier organic anion transporter family member 1A1; assay: TP_TRANSPORTER: inhibition of BSP uptake (BSP: 2 uM, DIDS: 100 uM) in Xenopus laevis oocytes; assay type: functional, cell-based, Oocyte; conditions: probe BSP
[17] = biological target: T1, Solute carrier organic anion transporter family member 1A1; assay: TP_TRANSPORTER: inhibition of Taurocholate uptake (Taurochorate: 20 uM, GC: 200 uM) in Xenopus laevis oocytes; assay type: functional, cell-based; conditions: oocyte
[18] = biological target: T1, Solute carrier organic anion transporter family member 1A1; assay: TP_TRANSPORTER: inhibition of BSP uptake (BSP: 2 uM, GC: 100 uM) in Xenopus laevis oocytes; assay type: functional, cell-based; conditions: oocyte
[19] = biological target: T1, Solute carrier organic anion transporter family member 1A1; assay: TP_TRANSPORTER: inhibition of BSP uptake (BSP: 2 uM, GDCA: 100 uM) in Xenopus laevis oocytes; assay type: functional, cell-based; conditions: oocyte
[20] = biological target: T1, Solute carrier organic anion transporter family member 1A1; assay: TP_TRANSPORTER: inhibition of Taurocholate uptake (Taurochorate: 20 uM, GDCA: 200 uM) in Xenopus laevis oocytes; assay type: functional, cell-based; conditions: oocyte

Compound: C[C@H](CCC(=O)NCCS(=O)(=O)O)[C@H]1CC[C@H]2[C@@H]3CC[C@@H]4C[C@H](O)CC[C@]4(C)[C@H]3C[C@H](O)[C@]12C [TAURODEOXYCHOLIC ACID]
Activity [1]: inhibitor [(at a rough estimate) 5 % of control]
Activity [2]: inhibitor [(at a rough estimate) 10 % of control]

inhibition at 10 µM [3]: 43%
Compound: C=CC1=C(C)/C(=C/c2[nH]c(Cc3[nH]c(/C=C4\NC(=O)C(C)=C4C=C)c(C)c3CCC(=O)O)c(CCC(=O)O)c2C)NC1=O [BILIRUBIN]

inhibition at 1000 µM [4]: 74%
Compound: CCCN(CCC)S(=O)(=O)c1ccc(C(=O)O)cc1 [PROBENECID]

Compound: C[C@H](CCC(=O)O)[C@H]1CC[C@H]2[C@@H]3[C@H](O)C[C@@H]4C[C@H](O)CC[C@]4(C)[C@H]3CC[C@]12C [CHENODIOL]
Activity [5]: inhibitor [(at a rough estimate) 15 % of control]
Activity [6]: inhibitor [(at a rough estimate) 5 % of control]

Compound: C[C@H](CCC(=O)O)[C@H]1CC[C@H]2[C@@H]3[C@@H](O)C[C@@H]4C[C@H](O)CC[C@]4(C)[C@H]3CC[C@]12C [URSODIOL]
Activity [7]: inhibitor [(at a rough estimate) 15 % of control]
Activity [8]: inhibitor [(at a rough estimate) 10 % of control]

inhibition at 100 µM [9]: 81%
Compound: CC1(C)C(/C=C/C=C/C=C/C=C2\N(CCCCS(=O)(=O)O)c3ccc4ccccc4c3C2(C)C)=[N+](CCCCS(=O)(=O)[O-])c2ccc3ccccc3c21 [INDOCYANINE GREEN]

Compound: C[C@H](CCC(=O)NCCS(=O)(=O)O)[C@H]1CC[C@H]2[C@@H]3[C@H](O)C[C@@H]4C[C@H](O)CC[C@]4(C)[C@H]3CC[C@]12C [TAUROCHENODEOXYCHOLATE]
Activity [10]: inhibitor [(at a rough estimate) 5 % of control]
Activity [11]: inhibitor [(at a rough estimate) 5 % of control]

Compound: C[C@H](CCC(=O)O)[C@H]1CC[C@H]2[C@@H]3CC[C@@H]4C[C@H](O)CC[C@]4(C)[C@H]3C[C@H](O)[C@]12C [DEOXYCHOLIC ACID]
Activity [12]: inhibitor [(at a rough estimate) 5 % of control]
Activity [13]: inhibitor [(at a rough estimate) 15 % of control]

Compound: C[C@H](CCC(=O)NCC(=O)O)[C@H]1CC[C@H]2[C@@H]3[C@H](O)C[C@@H]4C[C@H](O)CC[C@]4(C)[C@H]3CC[C@]12C [GLYCOCHENODEOXYCHOLATE]
Activity [14]: inhibitor [(at a rough estimate) 5 % of control]
Activity [15]: inhibitor [(at a rough estimate) 10 % of control]

inhibition at 100 µM [16]: 52%
Compound: O=S(=O)(O)c1cc(N=C=S)ccc1/C=C/c1ccc(NC=S)cc1S(=O)(=O)O

Compound: C[C@H](CCC(=O)NCC(=O)O)[C@H]1CC[C@H]2[C@@H]3[C@H](O)C[C@@H]4C[C@H](O)CC[C@]4(C)[C@H]3C[C@H](O)[C@]12C [GLYCOCHOLIC ACID]
Activity [17]: inhibitor [(at a rough estimate) 40 % of control]
Activity [18]: inhibitor [(at a rough estimate) 45 % of control]

Compound: C[C@H](CCC(=O)NCC(=O)O)[C@H]1CC[C@H]2[C@@H]3CC[C@@H]4C[C@H](O)CC[C@]4(C)[C@H]3C[C@H](O)[C@]12C [GLYCODEOXYCHOLATE]
Activity [19]: inhibitor [(at a rough estimate) 15 % of control]
Activity [20]: inhibitor [(at a rough estimate) 10 % of control]
